Measurements published in patent US10675366B2, “Imaging tumor glycolysis by non-invasive measurement of pyruvate kinase M2” (The Board of Trustees of the Leland Stanford Junior …, priority 2016, dated 2020).

Legend:
HeLa cells = assay: Cell uptake of [18F]DASA-23 in HeLa cells; assay type: cell-based, human
Protocol: Cell Uptake Studies: HeLa cells (0.5×106) were plated into 6-well plates overnight before [^18F]DASA-23 uptake analysis. On the day of the experiment, fresh, prewarmed DMEM containing 25 μCi of [^18F]DASA-23 was added to individual wells (1 ml per well). Cells were incubated with [^18F]DASA-23 at 37° C. and 5% CO2 over a 60 min time course. […] At the specified time points, incubation plates were put on ice, washed with ice-cold phosphate-buffered saline (PBS) (3×500 μl), and lysed in radioimmunoprecipitation assay buffer (Thermo Fisher Scientific Inc.; 500 μl). A portion of the cell lysates (200 μl) were used to determine the amount of decay-corrected radioactivity on a gamma counter (Cobra II Auto-Gamma Counter; Packard Biosciences Co.). The remaining cell lysate was used post radioactive decay for determination of protein concentration using a bicinchoninic acid (BCA) assay (Thermo Fisher Scientific Inc.). Additionally, 10 μl standards from the solution of [^18F]DASA-23 in DMEM (25 μCi/mi) were counted to quantitate the percentage of radiotracer uptake. For efflux studies, HeLa cells were incubated with [^18F]DASA-23 for 60 min and then washed with room temperature Hanks' buffered salt solution (3×500 μl); a subsequent incubation was then completed at 37° C. in fresh, prewarmed radiotracer-free DMEM. At the specified times, samples were processed as described above.

[1] = In vitro serum stability, human serum; assay type: in vitro ADME; conditions: up to 120 min
Protocol: (§1) In Vitro Serum Stability Studies: Human and mouse serum (Sigma-Aldrich) were centrifuged at 4° C., with speed of 13,000 rpm for 10 min. Formulated [^18F]DASA-23 (130-150 μCi, 20 μl volume) was added to 330 μl of supernatant. For control, the same volume of radiolabeled compound in 330 μl PBS was used. After vortexing the radiolabeled mixtures, 70 μl aliquots were incubated at 37° C. At predetermined time points (0, 15, 30, 60, and 120 min), 140 μl of ice-cold acetonitrile was added to corresponding samples to stop metabolism. After vortexing and centrifuging samples (10 min, 13,000 rpm), the supernatants were analyzed by analytical HPLC using the same conditions described above.

[2] = In vitro serum stability, mouse serum; assay type: in vitro ADME; conditions: up to 120 min
Protocol: as §1

[3] = test system: orthotopic U87 GBM tumors; assay: PET/CT/MR imaging and ex vivo autoradiography of mice bearing orthotopic U87 tumors; assay type: in vivo, mouse
Protocol: FIG. 10 illustrates non-invasive imaging of mice bearing orthotopic U87 tumor showing representative T2-weighted MR image and fused PET/CT/MR (10 to 30 min summed activity) of a mouse head bearing an orthotopically grown U87 tumor, white arrows indicate the tumor.
FIG. 11 illustrates non-invasive imaging of mice bearing orthotopic U87 tumor showing an ex vivo autoradiography of coronal mouse brain sections.
FIG. 12B illustrates non-invasive imaging of mice bearing orthotopic U87 tumor showing orthotopic U87 tumor and corresponding contralateral normal brain TAC taken from dynamic [^18F]DASA-23 PET/CT images. Data are means±SD (n=6 animals), ***p<0.001.
PET/MR co-registration confirmed precise correspondence of the [^18F]DASA-23 signal with the location of the intracranial tumors, further confirmed ex vivo by autoradiography.

PKM2 = PKM2 (Homo sapiens, UniProt P14618); conditions: cited from earlier work; for AC50: read-out: AC50 (PKM2 activation); for selectivity for PKM2 versus other pyruvate kinase isozymes: versus PKM1, PKR and PKL
[4] = test system: orthotopically growing human glioblastoma; conditions: mouse models; cited from earlier work

Sequence of PKM2 (P14618 whole entry, species assumed): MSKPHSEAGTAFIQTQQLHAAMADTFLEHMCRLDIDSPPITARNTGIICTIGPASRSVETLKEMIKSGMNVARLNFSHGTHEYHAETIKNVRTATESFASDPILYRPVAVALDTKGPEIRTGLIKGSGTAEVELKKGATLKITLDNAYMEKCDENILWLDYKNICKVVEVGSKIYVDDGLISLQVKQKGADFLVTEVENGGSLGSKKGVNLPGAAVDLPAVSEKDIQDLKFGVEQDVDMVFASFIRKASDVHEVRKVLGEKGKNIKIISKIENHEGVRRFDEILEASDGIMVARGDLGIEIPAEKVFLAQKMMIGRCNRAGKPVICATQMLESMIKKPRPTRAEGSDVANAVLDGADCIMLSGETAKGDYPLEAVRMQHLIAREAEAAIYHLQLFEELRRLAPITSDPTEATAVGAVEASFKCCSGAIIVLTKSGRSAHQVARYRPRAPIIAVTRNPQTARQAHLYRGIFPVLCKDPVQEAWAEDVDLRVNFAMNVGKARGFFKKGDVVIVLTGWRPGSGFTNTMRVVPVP

COc1ccc(S(=O)(=O)N2CCN(S(=O)(=O)c3c(F)cccc3[18F])CC2)cc1 [[^18F]DASA-23, 1-((2-Fluoro-6-(Fluoro-^18F)Phenyl)Sulfonyl)-4-((4-Methoxyphenyl)Sulfonyl)Piperazine]
cell uptake (HeLa cells; 30 min): 11.4±2.2 % of total tracer/mg protein
cell uptake (HeLa cells; 60 min): 21.0±2.0 % of total tracer/mg protein
percentage of intact tracer ([1]; 37° C.): 95.7%
serum stability [1]: stable
percentage of intact tracer ([2]; 37° C.): 95.8%
serum stability [2]: stable
tumor delineation by dynamic PET imaging ([3]; orthotopic U87 GBM tumors vs surrounding normal brain, n=6 mice): clearly delineated from the surrounding normal brain tissue
tumor uptake in blocking study (autoradiography) ([3]; pre-treatment with TEPP-46 (50 mg/kg) 60 min prior to tracer): dramatic reduction in tumor uptake
AC50 (PKM2): 90 nM
selectivity for PKM2 versus other pyruvate kinase isozymes (PKM2): selective activation of PKM2

[11CH3]Oc1ccc(S(=O)(=O)N2CCN(S(=O)(=O)c3c(F)cccc3F)CC2)cc1 [[^11C]DASA-23]
detection of PKM2-expressing tumor in vivo [4]: successfully detected orthotopically growing human glioblastoma

COc1ccc(S(=O)(=O)N2CCN(S(=O)(=O)c3c(F)cccc3F)CC2)cc1 [DASA-23, reference compound]
AC50 (PKM2): 90 nM
selectivity for PKM2 versus other pyruvate kinase isozymes (PKM2): selectivity for PKM2 relative to other PK enzymes
